The assay concerns the target T1, PSMA (Homo sapiens, UniProt Q04609).
T1 construct: expressed in transfected cells; host or cells: PC3-PIP cells (PC3 stably expressing PSMA), fixed with 0.2% glutaraldehyde
In words: Competitive cell binding assay on fixed PC3-PIP cells against [^18F]F-PSMA-1007. To be noted: 0.75 nM [^18F]F-PSMA-1007, 60 min room temperature, read-out: inhibition potency toward PMSA (IC50). The method, then:
Competitive cell binding experiments were conducted using PC3-PIP cells, [^18F]F-PSMA-1007, 300 nM PSMA-1007, and 8 different concentrations of PSMA-617-NODA (7) and PSMA-617-RESCA (9) (0, 0.01, 0.1, 1, 10, 100, 1000, 10,000 nM).
For in vitro uptake, the PC3-PIP cell line, which is isogenic to PC3 and stably expresses PSMA(Ghosh et al. [2005]), and PC-3 cell line (PSMA negative) were used. 40.000 PC3-PIP and PC3 cells were seeded in 96-well cell culture plates and at the confluence were fixed adding 100 µl of 0.2% glutaraldehyde in PBS to medium. After 5 min incubation at 37 °C, the cells were washed six times with PBS. Then 200 µl of 0.1 M Glycine in PBS with 0.02% of sodium azide were added. After 5 min, the cells were washed 6 times with PBS and finally 250 µl of 1% BSA in PBS with 0.2% of sodium azide were added. The competitive cell binding assays were performed as follows: PC3-PIP fixed cells were incubated with [^18F]F-PSMA-1007 at a concentration of 0.75 nM in the presence of 8 different concentrations of PSMA-617-NODA (7) and PSMA-617-RESCA (9) (0, 0.01, 0.1, 1, 10, 100, 1000, 10,000 nM) and of 300 nM of PSMA-1007. […] The activity in the supernatants and cell pellets was determined using a gamma counter (1282 Compugamma CS, LKB Wallac, Finland). Cellular uptake was calculated as the percentage of radioactivity in cell pellets. […]

SMILES strings stand for the structures.

T1 sequence (Q04609 whole entry): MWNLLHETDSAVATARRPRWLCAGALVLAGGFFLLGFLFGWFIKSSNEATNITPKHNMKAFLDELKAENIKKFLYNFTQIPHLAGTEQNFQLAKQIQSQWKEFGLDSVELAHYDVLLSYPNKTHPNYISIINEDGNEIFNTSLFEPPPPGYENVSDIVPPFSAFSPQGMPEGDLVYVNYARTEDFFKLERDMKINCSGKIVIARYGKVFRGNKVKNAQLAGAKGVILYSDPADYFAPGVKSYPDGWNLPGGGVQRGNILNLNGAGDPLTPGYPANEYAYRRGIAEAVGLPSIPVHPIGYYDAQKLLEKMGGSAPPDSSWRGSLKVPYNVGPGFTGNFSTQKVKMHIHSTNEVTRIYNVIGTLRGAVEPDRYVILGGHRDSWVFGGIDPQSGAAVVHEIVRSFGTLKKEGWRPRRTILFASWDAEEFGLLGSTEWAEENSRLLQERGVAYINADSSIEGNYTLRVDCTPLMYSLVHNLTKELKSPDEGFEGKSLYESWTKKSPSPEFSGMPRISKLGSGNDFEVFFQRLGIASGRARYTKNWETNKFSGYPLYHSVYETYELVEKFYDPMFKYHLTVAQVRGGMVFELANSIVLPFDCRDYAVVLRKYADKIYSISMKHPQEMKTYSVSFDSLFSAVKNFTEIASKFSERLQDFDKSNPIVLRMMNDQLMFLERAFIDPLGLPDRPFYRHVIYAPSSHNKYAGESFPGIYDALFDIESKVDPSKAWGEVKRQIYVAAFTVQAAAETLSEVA

For `O=C(O)CCC(NC(=O)NC(CCCCNC(=O)C(Cc1ccc2ccccc2c1)NC(=O)C1CCC(CNC(=O)Cc2ccc(CN(CC(=O)O)C3CCCCC3N(CC(=O)O)CC(=O)O)cc2)CC1)C(=O)O)C(=O)O` [PSMA-617-RESCA, (((S)-5-((S)-2-((1R,4S)-4-((2-(4-((((1R,2R)-2-(bis(carboxymethyl)amino)cyclohexyl)(carboxymethyl)amino)methyl)phenyl)acetamido)methyl)cyclohexane-1-carboxamido)-3-(naphthalen-2-yl)propanamido)-1-carboxypentyl)carbamoyl)-L-glutamic acid], the half-inhibitory concentration (IC50) – broadly, the point on the concentration scale where inhibition reaches its midpoint – was determined as 20 nM.

These data come from article PMC11192711, “Automated radiosynthesis and preclinical evaluation of two new PSMA-617 derivatives radiolabelled via [^18F]AlF^2+ method” (EJNMMI Radiopharmacy and Chemistry, 2024).
